Results from US11040038B2, “Methods for treating diseases associated with abnormal ACVR1 expression and ACVR1 inhibitors for use in the same” (Sumitomo Dainippon Pharma Oncology, Inc., priority 2018, dated 2021).
Several values for one entry are separate records, joined by “and”; a condition that tells them apart may be missing. Equal entries are not always repeated. Where two headings read alike, the source gives them in different places.

Tests used:
[1] = Comparison of concentration in plasma and brain tissue; assay type: in vivo, mice; conditions: 20 mg/kg
From the text: Additionally, a comparison of Compound 2 concentration in the plasma and brain tissue was made, the results of which are in FIG. 4B and Table 6.

[2] = Pharmacokinetics and relative bioavailability after a single oral dose (two liquid formulations, powder in capsule); assay type: in vivo, male Beagle dogs; conditions: for Kel / MRTobs / AUC0-TLast / AUC0-∞ / CL/F / Cmax / t1/2 / AUC(0-inf) / Tmax / half-life: plasma
From the text: The purpose of the study is to dose two suspension formulations of Compound 2 at two dose levels by gavage to Beagle dogs and to collect blood samples for the determination of plasma concentrations, derivation of pharmacokinetic parameters and to determine the relative bioavailability of the two suspension formulations. The pharmacokinetics of Compound 2 would be evaluated following oral administration in capsules and the relative bioavailability of this dosage form to the oral liquid formulations was determined.
This study involves the dosing of the test item by the oral route over three periods separated by a 7 days washout period as outlined in Table 43, Table 44, and Table 45. The third period of the study outlined in Table 45 is considered to be optional and will only be performed at the Sponsor's request. Prior to the day of dosing, food will be removed from the dogs at 4:00 pm and reintroduced 2 hrs after dosing.
For oral administration of the formulations, the test item was administered via a stomach tube followed by the administration of 10 mL of tap water. For oral administration of capsules, the capsule was placed on the back of the tongue to encourage swallowing followed by administration of 10 mL of tap water. The oral cavity was then be inspected to make sure the capsule was swallowed. The actual volume of dosing formulation administered will be calculated based on the animal's most recently scheduled body weight.
The pharmacokinetic parameters for Compound 2 in solution as Formulation #1 (Table 43) and Formulation #2 (Table 44) along with data for the dosing of Compound 2 powder in capsule (Table 45) are presented in Table 46.

[3] = Formulation #1 (Table 43), 2 mg/kg oral, male Beagle dogs, Mean
[4] = Formulation #1 (Table 43), 2 mg/kg oral, male Beagle dogs, individual dog, 2 mg/kg
[5] = Formulation #1 (Table 43), 5 mg/kg oral, male Beagle dogs, Mean
[6] = Formulation #1 (Table 43), 5 mg/kg oral, male Beagle dogs, individual dog, 5 mg/kg
[7] = Formulation #2 (Table 44), 2 mg/kg oral, male Beagle dogs, Mean
[8] = Formulation #2 (Table 44), 2 mg/kg oral, male Beagle dogs, individual dog, 2 mg/kg
[9] = Formulation #2 (Table 44), 5 mg/kg oral, male Beagle dogs, Mean
[10] = Formulation #2 (Table 44), 5 mg/kg oral, male Beagle dogs, individual dog, 5 mg/kg
[11] = Powder in Capsule (Table 45), 2 mg/kg oral, male Beagle dogs, Mean
[12] = Powder in Capsule (Table 45), 2 mg/kg oral, male Beagle dogs, individual dog, 2 mg/kg
[13] = Powder in Capsule (Table 45), 5 mg/kg oral, male Beagle dogs, Mean
[14] = Powder in Capsule (Table 45), 5 mg/kg oral, male Beagle dogs, individual dog, 5 mg/kg
[15] = male, Beagle, dog, po, 2 mg/kg, Formulation #1 (Table 43), 2 mg/kg oral, male Beagle dogs, Mean
[16] = male, Beagle, dog, po, 2 mg/kg, Formulation #1 (Table 43), 2 mg/kg oral, male Beagle dogs, individual dog

- Cmax ([1]; CD-1, mouse, po, brain): 1690 ng/g
- Cmax ([1]; CD-1, mouse, po, plasma): 0.378 µg/mL
- AUC ([1]; CD-1, mouse, po, plasma, read-out: AUC): 2.34 µg·h/mL
- AUC ([1]; brain): 7,765 ng/g · hr
- Kel [2, 3]: 0.124 h⁻¹
- MRTobs [2, 3]: 9.32 h
- AUC0-TLast [2, 4]: 0.087 µg·h/mL and 0.077 µg·h/mL
- AUC0-∞ [2, 4]: 0.092 µg·h/mL and 0.082 µg·h/mL
- CL/F [2, 4]: 22 L/h/kg and 24 L/h/kg
- Cmax [2, 4]: 0.00869 µg/mL and 0.00727 µg/mL
- MRTobs [2, 4]: 10.05 h and 8.64 h and 9.26 h
- t1/2 [2, 4]: 5.2 h
- Kel [2, 5]: 0.138 h⁻¹
- MRTobs [2, 5]: 8.71 h
- AUC0-∞ [2, 6]: 0.204 µg·h/mL and 0.475 µg·h/mL
- CL/F [2, 6]: 25 L/h/kg and 11 L/h/kg
- MRTobs [2, 6]: 9.72 h and 8.6 h and 7.82 h
- t1/2 [2, 6]: 5.1 h and 4.3 h
- Kel [2, 7]: 0.150 h⁻¹
- MRTobs [2, 7]: 8.49 h
- AUC0-TLast [2, 8]: 0.115 µg·h/mL and 0.044 µg·h/mL
- CL/F [2, 8]: 13 L/h/kg and 17 L/h/kg and 43 L/h/kg
- MRTobs [2, 8]: 7.31 h and 9.2 h and 8.96 h
- t1/2 [2, 8]: 4.8 h and 5.5 h
- Kel [2, 9]: 0.142 h⁻¹
- MRTobs [2, 9]: 8.28 h
- CL/F [2, 10]: 31 L/h/kg and 14 L/h/kg and 34 L/h/kg
- MRTobs [2, 10]: 8.44 h and 8.7 h and 7.71 h
- t1/2 [2, 10]: 4.9 h and 4.5 h
- Kel [2, 11]: 0.304 h⁻¹
- MRTobs [2, 11]: 5.23 h
- AUC0-∞ [2, 12]: 0.058 µg·h/mL and 0.122 µg·h/mL
- CL/F [2, 12]: 35 L/h/kg and 16 L/h/kg
- Kel [2, 12]: 0.293 h⁻¹ and 0.314 h⁻¹
- MRTobs [2, 12]: 5.15 h and 5.30 h
- t1/2 [2, 12]: 2.2 h
- Kel [2, 13]: 0.233 h⁻¹
- MRTobs [2, 13]: 6.44 h
- AUC0-TLast [2, 14]: 0.139 µg·h/mL and 0.107 µg·h/mL
- AUC0-∞ [2, 14]: 0.142 µg·h/mL and 0.122 µg·h/mL
- CL/F [2, 14]: 35 L/h/kg and 41 L/h/kg
- MRTobs [2, 14]: 5.79 h and 7.62 h and 5.92 h
- t1/2 [2, 14]: 3.8 h
- time of appearance in the plasma post dosing ([2]; beagle dogs, oral, all formulations): ≤ 0.5 h
- Cmax ([2]; male, Beagle, dog, po, 2 mg/kg, 2 mg/kg oral, range across Formulation #1, #2 and powder in capsules, read-out: mean Cmax): 0.00678 to 0.0149 µg/mL
- AUC(0-inf) [2, 15]: 0.074 µg·h/mL
- Tmax [2, 15]: 4.7 h
- half-life [2, 15]: 5.6 h
- AUC(0-inf) [2, 16]: 0.049 µg·h/mL
- Tmax [2, 16]: 5 h
- half-life [2, 16]: 6 h
SMILES: COc1cc(Nc2nccc(Nc3cccnc3-c3ccccn3)n2)ccc1N1CCN(C)CC1 [Compound 2, N^4-(2,2′-bipyridin-3-yl)-N^2-(3-methoxy-4-(4-methylpiperazin-1-yl)phenyl)pyrimidine-2,4-diamine]
- Kel [2, 4]: 0.116 h⁻¹ and 0.133 h⁻¹ and 0.124 h⁻¹
- AUC0-TLast [2, 6]: 0.19 µg·h/mL and 0.453 µg·h/mL and 0.198 µg·h/mL
- Cmax [2, 6]: 0.01551 µg/mL and 0.04676 µg/mL and 0.02115 µg/mL
- Kel [2, 6]: 0.115 h⁻¹ and 0.136 h⁻¹ and 0.162 h⁻¹
- AUC0-∞ [2, 8]: 0.148 µg·h/mL and 0.12 µg·h/mL and 0.047 µg·h/mL
- Cmax [2, 8]: 0.01972 µg/mL and 0.01043 µg/mL and 0.00459 µg/mL
- Kel [2, 8]: 0.179 h⁻¹ and 0.145 h⁻¹ and 0.125 h⁻¹
- AUC0-TLast [2, 10]: 0.151 µg·h/mL and 0.342 µg·h/mL and 0.141 µg·h/mL
- AUC0-∞ [2, 10]: 0.159 µg·h/mL and 0.357 µg·h/mL and 0.146 µg·h/mL
- Cmax [2, 10]: 0.0177 µg/mL and 0.03408 µg/mL and 0.01491 µg/mL
- Kel [2, 10]: 0.129 h⁻¹ and 0.142 h⁻¹ and 0.153 h⁻¹
- AUC0-TLast [2, 12]: 0.053 µg·h/mL and 0.049 µg·h/mL and 0.112 µg·h/mL
- Cmax [2, 12]: 0.00955 µg/mL and 0.01383 µg/mL and 0.02131 µg/mL
- Cmax [2, 14]: 0.04379 µg/mL and 0.01466 µg/mL and 0.01821 µg/mL
- Kel [2, 14]: 0.255 h⁻¹ and 0.183 h⁻¹ and 0.261 h⁻¹
